Measured values taken from paper PMC9143817 (Molecules, 2022).
Like-named read-outs stand apart in the source and are kept apart here.

Columns and labels:
[1] = DPPH^•-scavenging activity (Blois method)
Source text: Radical-scavenging assays are often used for screening the antioxidant properties of pure or novel synthesized compounds. For this purpose, the most commonly and widely used radical scavenging method is the DPPH radical-scavenging assay.

[2] = ABTS^•+-scavenging activity
Source text: A ABTS^•+-scavenging assay measured the ability of pure compounds to decrease the color, reacting directly with the ABTS radical.

[3] = DMPD^•+-scavenging activity
Source text: In this study, DMPD radicals were generated in situ by oxidation with ferric chloride. […] (as a biologically active and bright yellow chemical produced by Curcuma longa species).

[4] = design: method as in ref 3 (usnic acid), 46 (caffeic acid), 47 (uric acid), 48 (tannic acid), 49 (caffeic acid phenethyl ester); concentration or dose not given beside the values; settings: at similar concentrations; ref 3 (usnic acid), 46 (caffeic acid), 47 (uric acid), 48 (tannic acid), 49 (caffeic acid phenethyl ester); cited from earlier work
α-glycosidase = test: α-Glycosidase inhibition (p-NPG substrate); type: biochemical; settings: read-out: IC50 (nM) α-Gly
Procedure: The absorbances of samples were measured at 405 nm. One α-glycosidase unit was the enzyme quantity, which catalyzes […] of substrate per minute (pH 7.4).
Lineweaver–Burk graphs were used for the determination of Ki values and other inhibition parameters.

[5] = target: T1, carbonic anhydrase II isoenzyme (hCA II) (Homo sapiens, UniProt P00918); test: CA II inhibition (esterase activity); type: biochemical
T1 construct: Human erythrocytes were used as the CA II isoenzyme source; from tissue; host or cells: human erythrocytes
Procedure: Human erythrocytes were used as the CA II isoenzyme source. Fresh human erythrocytes were centrifuged at 10,000× g for 30 min. Then, they were precipitated and the serum was separated and adjusted with solid Tris to pH 8.7 [99]. The CA II isoenzyme was purified using Sepharose-4B-L-Tirozyne-sulfanylamide affinity column chromatography [100]. […] During the purification and inhibition process of hCA II, esterase activity was examined.

[6] = target: butyrylcholinesterase (BChE) (Equus caballus, UniProt P81908); test: biochemical
butyrylcholinesterase (BChE), sequence (P81908 whole entry): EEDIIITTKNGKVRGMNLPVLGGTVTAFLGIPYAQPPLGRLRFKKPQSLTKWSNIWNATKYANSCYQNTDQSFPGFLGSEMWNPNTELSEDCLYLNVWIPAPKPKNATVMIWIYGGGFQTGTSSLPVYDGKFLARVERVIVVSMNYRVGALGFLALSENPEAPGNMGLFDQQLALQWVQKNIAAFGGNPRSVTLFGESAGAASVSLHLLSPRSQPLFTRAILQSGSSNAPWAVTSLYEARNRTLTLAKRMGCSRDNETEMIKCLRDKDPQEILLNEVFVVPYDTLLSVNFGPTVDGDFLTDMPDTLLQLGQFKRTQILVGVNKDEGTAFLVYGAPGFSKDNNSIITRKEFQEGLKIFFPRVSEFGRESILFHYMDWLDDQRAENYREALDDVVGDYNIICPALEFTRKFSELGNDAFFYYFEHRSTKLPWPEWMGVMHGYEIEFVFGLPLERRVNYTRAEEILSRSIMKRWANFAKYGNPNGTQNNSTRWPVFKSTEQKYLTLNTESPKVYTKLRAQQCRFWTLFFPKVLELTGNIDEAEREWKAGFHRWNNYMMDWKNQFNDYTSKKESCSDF

[7] = target: T2, acetylcholinesterase (AChE) (Electrophorus electricus, UniProt O42275); test: biochemical
T2 sequence (O42275 24-633): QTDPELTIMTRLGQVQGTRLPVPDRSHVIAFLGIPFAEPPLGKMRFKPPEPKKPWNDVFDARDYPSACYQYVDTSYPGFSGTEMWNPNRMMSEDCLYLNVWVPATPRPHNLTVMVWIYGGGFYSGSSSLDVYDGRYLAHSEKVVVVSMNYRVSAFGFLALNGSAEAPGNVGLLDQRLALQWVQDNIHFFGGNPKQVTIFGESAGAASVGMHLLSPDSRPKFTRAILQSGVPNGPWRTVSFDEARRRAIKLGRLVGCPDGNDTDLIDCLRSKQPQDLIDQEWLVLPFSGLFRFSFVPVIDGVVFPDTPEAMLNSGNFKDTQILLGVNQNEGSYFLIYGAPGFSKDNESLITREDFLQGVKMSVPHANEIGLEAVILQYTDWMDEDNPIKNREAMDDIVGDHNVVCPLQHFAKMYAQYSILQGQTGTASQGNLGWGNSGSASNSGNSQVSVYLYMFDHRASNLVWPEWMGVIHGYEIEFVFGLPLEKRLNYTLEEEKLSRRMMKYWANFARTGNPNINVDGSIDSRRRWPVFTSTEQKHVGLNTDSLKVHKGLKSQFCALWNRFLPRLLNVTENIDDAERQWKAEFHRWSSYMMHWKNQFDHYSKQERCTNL

[8] = design: concentration or dose not given beside the values; settings: at similar concentrations; ref 3 (usnic acid), 50 (eugenol), 51 (resveratrol), 52 (taxifolin), 53 (olivetol); cited from earlier work
[9] = target: T2, acetylcholinesterase (AChE); settings: literature values, cited from earlier work
[10] = ref 53 (olivetol), 59 (taxifolin)

Row | Molecule | DPPH^• Scavenging IC50 [1] [µg/mL] | ABTS^•+ Scavenging IC50 [2] [µg/mL] | DMPD^•+ Scavenging IC50 [3] [µg/mL] | absorbance values for Fe^3+-reducing activity [4] | absorbance values for Cu^2+-reducing activity [8] | other results
1 | COc1ccc(O)c(C(C)(C)C)c1 [BHA, Butylated hydroxyanisole] | 10.10 | 5.07 | 11.99 | – | – | –
2 | Cc1cc(C(C)(C)C)c(O)c(C(C)(C)C)c1 [BHT, butylated hydroxytoluene] | 25.95 | 6.99 | 8.72 | – | – | –
3 | O=C(/C=C/c1ccc(O)c(O)c1)OCCc1ccccc1 [CAPE, caffeic acid phenethyl ester] | – | – | – | 2.509 | – | –
4 | O=c1oc2cc(O)ccc2c2oc3cc(O)ccc3c12 [Coumestrol, 3,9-dihydroxy-6-benzofuran [3,2-c] chromenone] | 25.95 | 12.24 | 12.81 | – | – | IC50 (α-glycosidase): 27.5 nM; IC50 [5]: 44 nM; Ki [5]: 23.8 ± 2.17 nM; IC50 [6]: 18.2 nM; Ki ([6]; Lineweaver–Burk): 21.7 ± 2.23 nM; IC50 [7]: 21.1 nM
5 | Cc1c(C)c2c(c(C)c1O)CCC(C)(C(=O)O)O2 (stereo not drawn) [Trolox] | 7.059 | 6.16 | 4.33 | – | – | –
6 | O=C(O)/C=C/c1ccc(O)c(O)c1 [caffeic acid] | – | – | – | 2.769 | – | –
7 | C=CCc1ccc(O)c(OC)c1 [eugenol] | – | – | – | – | 0.762 | –
8 | CCCCCc1cc(O)cc(O)c1 [olivetol] | – | – | – | – | 1.314 | Ki for AChE [9, 10]: 5.13 µg/mL
9 | O=C1c2c(O)cc(O)cc2OC(c2ccc(O)c(O)c2)C1O (stereo not drawn) [taxifolin] | – | – | – | – | 0.750 | Ki [9, 10]: 54900 nM
10 | O=c1[nH]c(=O)c2[nH]c(=O)[nH]c2[nH]1 [uric acid] | – | – | – | 0.432 | – | –
11 | CC(=O)c1c(O)c(C)c(O)c2c1OC1=CC(=O)C(C(C)=O)C(=O)C12C (stereo not drawn) [usnic acid] | – | – | – | 0.278 | 0.277 | Ki ([9]; ref 3 (usnic acid), 58 (CAPE)): 3.39 nM
12 | Cc1c(C)c2c(c(C)c1O)CC[C@@](C)(CCC[C@H](C)CCC[C@H](C)CCCC(C)C)O2 [α-Tocopherol] | 11.31 | 8.37 | 7.11 | – | – | –
13 | tannic acid | – | – | – | 2.428 | – | –
